Structures are written as SMILES. pEC50: −log10 of the molar value. Counter-ions that a name gives are not always drawn. Where only a bound is given, the exact number is not on record here.

The assay addresses T1, human receptor found in pancreatic islet cells (Homo sapiens, UniProt Q7Z601).
T1 sequence (Q7Z601 1-462): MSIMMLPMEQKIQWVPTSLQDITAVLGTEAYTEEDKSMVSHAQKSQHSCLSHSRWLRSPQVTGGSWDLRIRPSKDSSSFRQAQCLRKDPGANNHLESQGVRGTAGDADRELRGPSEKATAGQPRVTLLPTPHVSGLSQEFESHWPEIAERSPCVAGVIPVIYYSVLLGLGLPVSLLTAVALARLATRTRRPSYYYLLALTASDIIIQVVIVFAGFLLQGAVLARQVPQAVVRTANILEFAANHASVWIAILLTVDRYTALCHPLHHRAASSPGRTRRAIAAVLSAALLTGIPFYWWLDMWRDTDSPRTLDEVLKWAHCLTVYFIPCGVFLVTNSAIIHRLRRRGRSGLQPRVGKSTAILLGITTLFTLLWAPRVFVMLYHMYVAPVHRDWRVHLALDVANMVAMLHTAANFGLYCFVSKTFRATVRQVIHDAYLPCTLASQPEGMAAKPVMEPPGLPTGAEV
Nature of the assay: Activation of intracellular IP3 signaling in transfected cells (Activation Assay). Format: cell-based. The note with it: calculated from IP3 concentration measurements in cells transfected with the human receptor. The method, then:
Table 12 provides exemplary compounds that were prepared and assessed, following protocols known to those of skilled in the art, for activation of intracellular inositol trisphosphate (IP3) signaling pathways that lead to elevation of intracellular calcium concentration. EC50 values provided in Table 12 were calculated from IP3 concentration measurements in cells transfected with a human receptor found in pancreatic islet cells, inter alia.
In the case of `C[C@H](N[C@@H](Cc1ccccc1)C(=O)Nc1nnc(-c2ccncc2)s1)c1ccccn1` [Example 1.2, (S)-3-phenyl-2-((S)-1-(pyridin-2-yl)ethylamino)-N-(5-(pyridin-4-yl)-1,3,4-thiadiazol-2-yl)propanamide], the pEC50 is 6.00 to 7.00.
As to `Nc1nc(CN[C@@H](Cc2ccccc2)C(=O)Nc2nnc(-c3ccncc3)s2)cs1` [Example 1.3, (S)-2-((2-aminothiazol-4-yl)methylamino)-3-phenyl-N-(5-(pyridin-4-yl)-1,3,4-thiadiazol-2-yl)propanamide], the pEC50 was 6.00 to 7.00.
Turning to `C[C@H](N[C@@H](Cc1ccccc1)C(=O)Nc1nnc(-c2ccncc2)s1)c1cscn1` [Example 1.4], the pEC50 is 7.00 to 7.30.
With `O=C(Nc1nnc(-c2ccncc2)s1)[C@H](Cc1ccccc1)NCc1cscn1` [Example 1.5, (S)-3-phenyl-N-(5-(pyridin-4-yl)-1,3,4-thiadiazol-2-yl)-2-(thiazol-4-ylmethylamino)propanamide] the figure was 7.00 to 7.30; with `O=C(Nc1nnc(-c2ccncc2)s1)[C@H](Cc1cccc(F)c1)NCc1cscn1` [Example 1.6, (S)-3-(3-fluorophenyl)-N-(5-(pyridin-4-yl)-1,3,4-thiadiazol-2-yl)-2-(thiazol-4-ylmethylamino)propanamide], 7.00 to 7.30; with `O=C(Nc1nnc(-c2ccncc2)[nH]1)[C@H](Cc1ccccc1)NCc1cscn1` [Example 2, (S)-3-Phenyl-N-(5-(pyridin-4-yl)-4H-1,2,4-triazol-3-yl)-2-(thiazol-4-ylmethylamino)propanamide], 5.00 to 6.00.
With `O=C(Nc1cc(-c2ccncc2)no1)[C@H](Cc1ccc(Cl)cc1)NCc1cscn1` [Example 3.1, (S)-3-(4-Chlorophenyl)-N-(3-(pyridin-4-yl)isoxazol-5-yl)-2-(thiazol-4-ylmethylamino)propanamide] the figure was 6.00 to 7.00; with `O=C(O)CN[C@@H](Cc1ccc(F)cc1)C(=O)Nc1cc(-c2ccncc2)no1` [Example 3.2, (S)-2-(3-(4-Fluorophenyl)-1-oxo-1-(3-(pyridin-4-yl)isoxazol-5-ylamino)propan-2-ylamino)acetic acid], greater than 7.30; with `O=C(Nc1cc(-c2ccncc2)no1)[C@H](Cc1ccccc1)NCc1cscn1` [Example 3.3, (S)-3-Phenyl-N-(3-(pyridin-4-yl)isoxazol-5-yl)-2-(thiazol-4-ylmethylamino)propanamide], 6.00 to 7.00.
Consider `O=C(Nc1csc(-c2ccncc2)n1)[C@H](Cc1ccccc1)NCc1cscn1` [Example 4, (S)-3-Phenyl-N-(2-(pyridin-4-yl)thiazol-4-yl)-2-(thiazol-4-ylmethylamino)propanamide], for which the pEC50 is 6.00 to 7.00.
With `O=C(Nc1cnc(-c2ccncc2)s1)[C@H](Cc1ccc(F)cc1)NCc1cscn1` [Example 5.2, (S)-3-(4-Fluorophenyl)-N-(2-(pyridin-4-yl)thiazol-5-yl)-2-(thiazol-4-ylmethylamino)propanamide] the figure was 7.00 to 7.30.
With `O=C(Nc1cnc(-c2ccncc2)s1)[C@H](Cc1ccccc1)NCc1cscn1` [Example 5.3, (S)-3-Phenyl-N-(2-(pyridin-4-yl)thiazol-5-yl)-2-(thiazol-4-ylmethylamino)-propanamide] the figure was 7.00 to 7.30; with `O=C(Nc1cncc(-c2ccn[nH]2)c1)[C@H](Cc1ccccc1)NCc1cscn1` [Example 6, (2S)—N-(5-(1H-Pyrazol-5-yl)pyridin-3-yl)-3-phenyl-2-(thiazol-4-ylmethylamino)propanamide], 6.00 to 7.00.
With `O=C(Nc1cc(-c2ccncc2)n[nH]1)[C@H](Cc1ccccc1)NCc1cscn1` [Example 7, (S)-3-Phenyl-N-(3-(pyridin-4-yl)-1H-pyrazol-5-yl)-2-(thiazol-4-ylmethylamino)propanamide] the figure was 7.00 to 7.30; with `CNc1cc(-c2nnc(NC(=O)[C@H](Cc3ccccc3)NCc3cscn3)s2)ccn1` [Example 8.1], greater than 7.30.
`CNc1cc(-c2nnc(NC(=O)[C@H](Cc3ccc(F)cc3)NCc3cscn3)s2)ccn1` [Example 8.2, (2S)-3-(4-fluorophenyl)-N-(5-(2-(methylamine)pyridine-4-yl)-1,3,4-thiadiazol-2-yl)-2-(thiazol-4-ylmethylamino)propanamide]: the pEC50 is 7.00 to 7.30.
With `CNc1nccc(-c2cc(NC(=O)[C@H](Cc3ccc(F)cc3)NCc3cscn3)n(C)n2)n1` [Example 9, (2S)-3-(4-fluorophenyl)-N-(1-methyl-3-(2-(methylamino)pyrimidin-4-yl)-1H-pyrazol-5-yl)-2-(thiazol-4-ylmethylamino)propanamide] the figure was 6.00 to 7.00; with `O=C(Nc1nccc(-c2ccncc2)n1)[C@H](Cc1ccccc1)NCc1cscn1` [Example 10, (S)-3-phenyl-N-(4-(pyridin-4-yl)pyrimidin-2-yl)-2-(thiazol-4-ylmethylamino)propanamide], 6.00 to 7.00.
The figure for `COc1ncc(-c2ccncc2)cc1NC(=O)[C@H](Cc1ccccc1)NC1(c2ccccn2)CC1` [Example 11.1, (S)—N-(2-methoxy-5-(pyridin-4-yl)pyridin-3-yl)-3-phenyl-2-(1-(pyridin-2-yl)cyclopropylamino)propanamide] is greater than 7.30; for `O=C(Nc1cccc(-c2cc[nH]n2)c1)[C@H](Cc1ccccc1)NCc1cscn1` [Example 12, (2S)—N-(3-(1H-pyrazol-3-yl)phenyl)-3-phenyl-2-(thiazol-4-ylmethylamino)propanamide] it is 7.00 to 7.30.
For the compound `O=C(Nc1cc(-c2ccncc2)ccc1O)[C@H](Cc1ccccc1)NCc1cscn1` [Example 13, (S)—N-(2-hydroxy-5-(pyridin-4-yl)phenyl)-3-phenyl-2-(thiazol-4-ylmethylamino)propanamide], the pEC50 is greater than 7.30.
With `COc1ncc(-c2ccn[nH]2)cc1NC(=O)[C@H](Cc1ccccc1)NC1(c2ccccn2)CC1` [Example 14.1, (2S)—N-(2-methoxy-5-(1H-pyrazol-5-yl)pyridin-3-yl)-3-phenyl-2-(1-(pyridin-2-yl)cyclopropylamino)propanamide] the figure was 6.00 to 7.00; with `COc1ncc(-c2cc[nH]n2)cc1NC(=O)[C@H](Cc1ccccc1)NC1(c2cscn2)CC1` [Example 14.2], 6.00 to 7.00.
With `COc1ncc(-c2cc[nH]n2)cc1NC(=O)[C@H](Cc1ccccc1)NCc1cscn1` [Example 14.3, (2S)—N-(2-methoxy-5-(1H-pyrazol-3-yl)pyridin-3-yl)-3-phenyl-2-(thiazol-4-ylmethylamino)propanamide] the figure was 7.00 to 7.30.
In the case of `COc1ncc(-c2cn[nH]c2)cc1NC(=O)[C@H](Cc1ccccc1)NCc1ccccn1` [Example 15.2, (2S)—N-(2-methoxy-5-(1H-pyrazol-4-yl)pyridin-3-yl)-3-phenyl-2-(pyridin-2-ylmethylamino)propanamide], the pEC50 was 6.00 to 7.00.
With `Cc1cc(-c2cc(NC(=O)[C@H](Cc3ccc(F)cc3)NCc3cscn3)n(C)n2)ccn1` [Example 16.1, (2S)-3-(4-Fluorophenyl)-N-(1-methyl-3-(2-methylpyridin-4-yl)-1H-pyrazol-5-yl)-2-(thiazol-4-ylmethylamino)propanamide] the figure was greater than 7.30.
With `Cc1cc(-c2cc(NC(=O)[C@@H](N)Cc3ccc(F)cc3)n(C)n2)ccn1` [Example 16.1.F, (2S)-2-amino-3-(4-fluorophenyl)-N-(1-methyl-3-(2-methylpyridin-4-yl)-1H-pyrazol-5-yl)propanamide] the figure was 6.00 to 7.00; with `Cc1cc(-c2cc(NC(=O)[C@H](Cc3ccc(F)cc3)NCC(=O)O)n(C)n2)ccn1` [Example 16.2, 2-((S)-3-(4-Fluorophenyl)-1-(1-methyl-3-(2-methylpyridin-4-yl)-1H-pyrazol-5-ylamino)-1-oxopropan-2-ylamino)acetic acid dihydrochloride], 7.00 to 7.30.
For `Cn1nc(-c2ccncc2)cc1NC(=O)[C@H](Cc1ccccc1)NCc1cscn1` [Example 17.2, (S)—N-(1-Methyl-3-(pyridin-4-yl)-1H-pyrazol-5-yl)-3-phenyl-2-(thiazol-4-ylmethylamino)propanamide], the pEC50 is greater than 7.30.
The figure for `Cn1nc(-c2ccncc2)cc1NC(=O)[C@H](Cc1ccccc1)NCc1ccccn1` [Example 17.3, (S)—N-(1-Methyl-3-(pyridin-4-yl)-1H-pyrazol-5-yl)-3-phenyl-2-(pyridin-2-ylmethylamino)propanamide] is 7.00 to 7.30.
With `Cn1nc(-c2ccncc2)cc1NC(=O)[C@H](Cc1ccccc1)NCc1ccc(F)cn1` [Example 17.4, (S)-2-((5-Fluoropyridin-2-yl)methylamino)-N-(1-methyl-3-(pyridin-4-yl)-1H-pyrazol-5-yl)-3-phenylpropanamide] the figure was greater than 7.30; with `Cn1nc(-c2ccncc2)cc1NC(=O)[C@H](Cc1ccc(F)cc1)NCc1cscn1` [Example 17.5, (S)-3-(4-Fluorophenyl)-N-(1-methyl-3-(pyridin-4-yl)-1H-pyrazol-5-yl)-2-(thiazol-4-ylmethylamino)propanamide], greater than 7.30; with `Cn1nc(-c2ccncc2)cc1NC(=O)[C@H](Cc1ccccc1)NCC1CC1` [Example 17.6, (S)-2-(Cyclopropylmethylamino)-N-(1-methyl-3-(pyridin-4-yl)-1H-pyrazol-5-yl)-3-phenylpropanamide], 6.00 to 7.00.

A word on the pEC50: it is the negative decadic logarithm of the EC50, by convention in mol/L.
